Source: patent US20260297081A1, “COMPOUNDS AND METHODS OF TREATING CANCERS” (Cullgen Inc., priority 2023, published 2026)

Legend:
Assay type in all cases: cell-based
MCF7 cells = assay: Anti-proliferation (viability) of MCF7 cells (Table 7, FIG. 2B); conditions: Homo sapiens, MCF7, MCF7 cells, 3-6 days, 10-point serial dilution; read-out: GI IC50 in MCF-7
Calu-1 cells = assay: Anti-proliferation (viability) of NSCLC Calu-1 cells, 3 days (Table 7, FIG. 2B); conditions: Homo sapiens, 72 h; Calu-1 cells, 3 days, 10-point serial dilution; read-out: GI IC50 in Calu-1
Protocol: To evaluate anti-proliferation activities of heterobifunctional compounds, NSCLC Calu-1 or ER+ breast cancer T47D cells were treated with selected heterobifunctional compounds following a 10-point serial dilution for 3 or 6 days, respectively.
To verify that heterobifunctional compound-mediated degradation is dependent on the binding to CDK4-cyclin D complex, a negative control compound, CPD-143, which is derived from active heterobifunctional compound CPD-10 was designed. CPD-143 bears the same DDB1 ligand and linker as CPD-10 but with a modified warhead to impair the binding of the control compound to CDK4.

CDK4 = CDK4 (Homo sapiens, UniProt P11802+Q16531); assay: CDK4 percentage degradation in Calu-1 cells (Table 6); parameters: Cells that express cyclin D1-3 and CDK4/6 proteins were treated with heterobifunctional compounds; endogenous in cells; host or cells: Calu-1; conditions: 16 hours
Summary of the method: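 Percentage degradation of Cyclin D1 and CDK4 derived from densitometry of ECL Western blots on lysates of Calu-1 cells. Treatment was 16 h with compound at either 40 nM or 200 nM.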

Sequence of CDK4 (P11802 2-303 limits assumed): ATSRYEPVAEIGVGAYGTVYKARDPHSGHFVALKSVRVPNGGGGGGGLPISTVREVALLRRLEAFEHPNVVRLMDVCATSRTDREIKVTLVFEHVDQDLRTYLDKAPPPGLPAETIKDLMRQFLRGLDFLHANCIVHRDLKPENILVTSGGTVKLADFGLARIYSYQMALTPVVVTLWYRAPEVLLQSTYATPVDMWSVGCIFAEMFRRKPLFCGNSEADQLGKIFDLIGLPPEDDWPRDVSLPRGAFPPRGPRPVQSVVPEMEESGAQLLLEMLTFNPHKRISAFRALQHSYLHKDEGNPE
Sequence of CDK4 (P24385 whole entry partner): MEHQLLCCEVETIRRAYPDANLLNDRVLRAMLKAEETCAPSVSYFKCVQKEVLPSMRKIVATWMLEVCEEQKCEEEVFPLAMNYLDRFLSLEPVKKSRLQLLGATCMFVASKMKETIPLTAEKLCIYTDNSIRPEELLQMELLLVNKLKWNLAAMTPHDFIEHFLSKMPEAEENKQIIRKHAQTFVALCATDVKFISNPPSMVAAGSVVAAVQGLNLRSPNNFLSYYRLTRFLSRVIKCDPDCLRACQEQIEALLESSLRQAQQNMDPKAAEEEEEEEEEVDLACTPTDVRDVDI
Sequence of CDK4 (Q16531 2-1140 limits assumed): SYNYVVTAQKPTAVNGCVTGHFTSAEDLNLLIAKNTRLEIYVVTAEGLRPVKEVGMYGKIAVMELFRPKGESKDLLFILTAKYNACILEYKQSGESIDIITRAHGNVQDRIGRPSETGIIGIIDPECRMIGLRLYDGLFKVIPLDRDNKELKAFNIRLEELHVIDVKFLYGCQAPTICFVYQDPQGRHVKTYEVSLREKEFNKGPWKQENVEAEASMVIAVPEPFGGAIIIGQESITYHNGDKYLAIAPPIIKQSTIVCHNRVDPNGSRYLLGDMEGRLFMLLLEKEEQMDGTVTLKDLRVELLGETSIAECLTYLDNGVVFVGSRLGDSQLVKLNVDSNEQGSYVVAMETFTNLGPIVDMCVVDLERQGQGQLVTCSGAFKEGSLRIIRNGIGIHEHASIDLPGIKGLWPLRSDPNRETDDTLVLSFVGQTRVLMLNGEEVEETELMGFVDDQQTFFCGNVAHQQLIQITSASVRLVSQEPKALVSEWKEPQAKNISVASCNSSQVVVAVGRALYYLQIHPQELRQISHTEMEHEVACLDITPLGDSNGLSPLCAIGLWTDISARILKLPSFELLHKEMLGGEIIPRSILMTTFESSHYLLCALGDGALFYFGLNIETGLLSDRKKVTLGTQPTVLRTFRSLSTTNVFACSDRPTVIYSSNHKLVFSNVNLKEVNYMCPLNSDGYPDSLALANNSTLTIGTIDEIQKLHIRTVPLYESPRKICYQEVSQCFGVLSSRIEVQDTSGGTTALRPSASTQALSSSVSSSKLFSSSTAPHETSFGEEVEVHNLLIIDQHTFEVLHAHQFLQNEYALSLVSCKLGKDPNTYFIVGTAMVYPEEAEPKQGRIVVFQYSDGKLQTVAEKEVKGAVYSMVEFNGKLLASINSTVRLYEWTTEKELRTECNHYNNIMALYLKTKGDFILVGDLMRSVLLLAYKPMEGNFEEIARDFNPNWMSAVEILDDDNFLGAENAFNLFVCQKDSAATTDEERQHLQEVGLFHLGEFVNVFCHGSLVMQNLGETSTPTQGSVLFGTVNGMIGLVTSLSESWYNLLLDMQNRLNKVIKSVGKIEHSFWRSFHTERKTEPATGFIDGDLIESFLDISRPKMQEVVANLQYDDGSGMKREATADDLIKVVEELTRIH

| SMILES | IC50 (Calu-1 cells) | also measured |
| --- | --- | --- |
| CC(=O)c1c(C)c2cnc(Nc3ccc(N4CCN(C5CCN(C(=O)[C@H]6CC[C@H](Nc7nc(NC(C)C)ccc7-c7nc8cc(N(C)C)ccc8[nH]7)CC6)C5)CC4)cn3)nc2n(C2CCCC2)c1=O (relative stereo) [CPD-540, trans-6-acetyl-8-cyclopentyl-2-((5-(4-(1-(4-((3-(5-(dimethylamino)-1H-benzo[d]imidazol-2-yl)-6-(isopropylamino)pyridin-2-yl)amino)cyclohexane-1-carbonyl)pyrrolidin-3-yl)piperazin-1-yl)pyridin-2-yl)amino)-5-methylpyrido[2,3-d]pyrimidin-7(8H)-one] | ≥ 50 nM | IC50 (MCF7 cells): > 100 nM |
| CC(=O)c1c(C)c2cnc(Nc3ccc(CN4CCN(C5CCN(C(=O)[C@H]6CC[C@H](Nc7nc(NC(C)C)ccc7C(=O)Nc7ccc(N(C)C)nn7)CC6)C5)CC4)cn3)nc2n(C2CCCC2)c1=O (stereo partly shown) [CPD-512, 2-((4-(3-(4-((6-((6-acetyl-8-cyclopentyl-5-methyl-7-oxo-7,8-dihydropyrido[2,3-d]pyrimidin-2-yl)amino)pyridin-3-yl)methyl)piperazin-1-yl)pyrrolidine-1-carbonyl)cyclohexyl)amino)-N-(6-(dimethylamino)pyridazin-3-yl)-6-(isopropylamino)nicotinamide] | 10 to 50 nM | – |
| CNc1ccc(C(=O)Nc2ccc(N(C)C)nn2)c(NC2CN(CC(=O)N3CCN(Cc4ccc(Nc5ncc6c(C)c(C(C)=O)c(=O)n(C7CCCC7)c6n5)nc4)CC3)C2)n1 [CPD-513, 2-((1-(2-(4-((6-((6-acetyl-8-cyclopentyl-5-methyl-7-oxo-7,8-dihydropyrido[2,3-d]pyrimidin-2-yl)amino)pyridin-3-yl)methyl)piperazin-1-yl)-2-oxoethyl)azetidin-3-yl)amino)-N-(6-(dimethylamino)pyridazin-3-yl)-6-(methylamino)nicotinamide] | ≥ 50 nM | – |
| CC(=O)c1c(C)c2cnc(Nc3ccc(N4CCN(CC(=O)NC5CC6(C5)CC(Nc5nc(NC(C)C)ccc5C(=O)Nc5cc(C)n(C(F)(F)F)n5)C6)CC4)cn3)nc2n(C2CCCC2)c1=O (stereo not shown) [CPD-514, 2-((6-(2-(4-(6-((6-acetyl-8-cyclopentyl-5-methyl-7-oxo-7,8-dihydropyrido[2,3-d]pyrimidin-2-yl)amino)pyridin-3-yl)piperazin-1-yl)acetamido)spiro[3.3]heptan-2-yl)amino)-6-(isopropylamino)-N-(5-methyl-1-(trifluoromethyl)-1H-pyrazol-3-yl)nicotinamide] | ≥ 50 nM | – |
| CC(=O)c1c(C)c2cnc(Nc3ccc(N4CCN(C5CCN(C(=O)C6(C)CCC(Nc7nc(NC(C)C)ccc7C(=O)Nc7ccc(N(C)C)nn7)CC6)C5)CC4)cn3)nc2n(C2CCCC2)c1=O (stereo not shown) [CPD-516, 2-((4-(3-(4-(6-((6-acetyl-8-cyclopentyl-5-methyl-7-oxo-7,8-dihydropyrido[2,3-d]pyrimidin-2-yl)amino)pyridin-3-yl)piperazin-1-yl)pyrrolidine-1-carbonyl)-4-methylcyclohexyl)amino)-N-(6-(dimethylamino)pyridazin-3-yl)-6-(isopropylamino)nicotinamide] | 10 to 50 nM | – |
| CC(=O)c1c(C)c2cnc(Nc3ccc(N4CCC(N(C)C(=O)CN5CC(Nc6nc(NC(C)C)ccc6C(=O)Nc6ccc(N(C)C)nn6)C5)CC4)cn3)nc2n(C2CCCC2)c1=O [CPD-517, 2-((1-(2-((1-(6-((6-acetyl-8-cyclopentyl-5-methyl-7-oxo-7,8-dihydropyrido[2,3-d]pyrimidin-2-yl)amino)pyridin-3-yl)piperidin-4-yl)(methyl)amino)-2-oxoethyl)azetidin-3-yl)amino)-N-(6-(dimethylamino)pyridazin-3-yl)-6-(isopropylamino)nicotinamide] | ≥ 50 nM | – |
| [2H]C([2H])([2H])Nc1ccc(C(=O)Nc2cc3n(n2)CCC3)c(N[C@H]2CC[C@H](C(=O)N3CCC(N4CCN(c5ccc(Nc6ncc7c(C)c(C(C)=O)c(=O)n(C8CCCC8)c7n6)nc5)CC4)C3)CC2)n1 (stereo partly drawn) [CPD-521, 2-((trans-4-(3-(4-(6-((6-acetyl-8-cyclopentyl-5-methyl-7-oxo-7,8-dihydropyrido[2,3-d]pyrimidin-2-yl)amino)pyridin-3-yl)piperazin-1-yl)pyrrolidine-1-carbonyl)cyclohexyl)amino)-N-(5,6-dihydro-4H-pyrrolo[1,2-b]pyrazol-2-yl)-6-((methyl-d3)amino)nicotinamide] | 10 to 50 nM | – |
| [2H]C([2H])([2H])Nc1ccc(C(=O)Nc2cccc(OC)n2)c(N[C@H]2CC[C@H](C(=O)N3CCC(N4CCN(c5ccc(Nc6ncc7c(C)c(C(C)=O)c(=O)n(C8CCCC8)c7n6)nc5)CC4)C3)CC2)n1 (stereo partly drawn) [CPD-523, 2-((trans-4-(3-(4-(6-((6-acetyl-8-cyclopentyl-5-methyl-7-oxo-7,8-dihydropyrido[2,3-d]pyrimidin-2-yl)amino)pyridin-3-yl)piperazin-1-yl)pyrrolidine-1-carbonyl)cyclohexyl)amino)-N-(6-methoxypyridin-2-yl)-6-((methyl-d3)amino)nicotinamide] | ≥ 50 nM | – |

More lines, main results first:

| IC50 (Calu-1 cells) | SMILES | also measured |
| --- | --- | --- |
| ≤ 10 nM | CC(=O)c1c(C)c2cnc(Nc3ccc(N4CCN(C5CCN(C(=O)[C@H]6CC[C@H](Nc7nc(NC(C)C)ccc7-c7nc8ccc(N(C)C)nc8[nH]7)CC6)C5)CC4)cn3)nc2n(C2CCCC2)c1=O (relative stereo) [CPD-546, trans-6-acetyl-8-cyclopentyl-2-((5-(4-(1-(4-((3-(5-(dimethylamino)-3H-imidazo[4,5-b]pyridin-2-yl)-6-(isopropylamino)pyridin-2-yl)amino)cyclohexane-1-carbonyl)pyrrolidin-3-yl)piperazin-1-yl)pyridin-2-yl)amino)-5-methylpyrido[2,3-d]pyrimidin-7(8H)-one] | IC50 (MCF7 cells): < 50 nM |
| 10 to 50 nM | CNc1ccc(C(=O)Nc2ccn(C)n2)c(NC2CC3(C2)CN(C(=O)CCN2CCN(c4ccc(Nc5ncc6c(C)c(C(C)=O)c(=O)n(C7CCCC7)c6n5)nc4)CC2)C3)n1 [CPD-144, 2-((2-(3-(4-(6-((6-acetyl-8-cyclopentyl-5-methyl-7-oxo-7,8-dihydropyrido[2,3-d]pyrimidin-2-yl)amino)pyridin-3-yl)piperazin-1-y)propanoyl)-2-azaspiro[3.3]heptan-6-yl)amino)-N-(1-methyl-1H-pyrazol-3-yl)-6-(methylamino)nicotinamide] | inhibition at 0.04 µM (CDK4; 40 nM): 50 to 80%; inhibition at 0.2 µM (CDK4; 200 nM): > 80% |
| ≤ 10 nM | CC(=O)c1c(C)c2cnc(Nc3ccc(N4CCN(C5CCN(C(=O)CN6CC7(CC(Nc8nc(NC(C)C)ccc8C(=O)Nc8ccc(N(C)C)nn8)C7)C6)C5)CC4)cn3)nc2n(C2CCCC2)c1=O (stereo not shown) [CPD-518, 2-((2-(2-(3-(4-(6-((6-acetyl-8-cyclopentyl-5-methyl-7-oxo-7,8-dihydropyrido[2,3-d]pyrimidin-2-yl)amino)pyridin-3-yl)piperazin-1-yl)pyrrolidin-1-yl)-2-oxoethyl)-2-azaspiro[3.3]heptan-6-yl)amino)-N-(6-(dimethylamino)pyridazin-3-yl)-6-(isopropylamino)nicotinamide] | – |
| ≤ 10 nM | [2H]C([2H])([2H])Nc1ccc(C(=O)Nc2ccc(N(C)C)nn2)c(NC2CC3(C2)CN(C(=O)CN2CCC4(CCN(Cc5ccc(Nc6ncc7c(C)c(C(C)=O)c(=O)n(C8CCCC8)c7n6)nc5)C4)C2)C3)n1 (stereo not shown) [CPD-519, 2-((2-(2-(7-((6-((6-acetyl-8-cyclopentyl-5-methyl-7-oxo-7,8-dihydropyrido[2,3-d]pyrimidin-2-yl)amino)pyridin-3-yl)methyl)-2,7-diazaspiro[4.4]nonan-2-yl)acetyl)-2-azaspiro[3.3]heptan-6-yl)amino)-N-(6-(dimethylamino)pyridazin-3-yl)-6-((methyl-d3)amino)nicotinamide] | – |
| ≤ 10 nM | COc1cccc(NC(=O)c2ccc(NC(C)C)nc2N[C@H]2CC[C@H](C(=O)N3CCC(N4CCN(c5ccc(Nc6ncc7c(C)c(C(C)=O)c(=O)n(C8CCCC8)c7n6)nc5)CC4)C3)CC2)n1 (stereo partly drawn) [CPD-522, 2-((trans-4-(3-(4-(6-((6-acetyl-8-cyclopentyl-5-methyl-7-oxo-7,8-dihydropyrido[2,3-d]pyrimidin-2-yl)amino)pyridin-3-yl)piperazin-1-yl)pyrrolidine-1-carbonyl)cyclohexyl)amino)-6-(isopropylamino)-N-(6-methoxypyridin-2-yl)nicotinamide] | – |
| ≤ 10 nM | [2H]C([2H])([2H])Nc1ccc(C(=O)Nc2cc3n(n2)CCC3)c(NC2CC3(C2)CN(C(=O)CC(N2CCN(c4ccc(Nc5ncc6c(C)c(C(C)=O)c(=O)n(C7CCCC7)c6n5)nc4)CC2)C(F)(F)F)C3)n1 (stereo not shown) [CPD-524, 2-((2-(3-(4-(6-((6-acetyl-8-cyclopentyl-5-methyl-7-oxo-7,8-dihydropyrido[2,3-d]pyrimidin-2-yl)amino)pyridin-3-yl)piperazin-1-yl)-4,4,4-trifluorobutanoyl)-2-azaspiro[3.3]heptan-6-yl)amino)-N-(5,6-dihydro-4H-pyrrolo[1,2-b]pyrazol-2-yl)-6-((methyl-d3)amino)nicotinamide] | – |
| ≤ 10 nM | CC(=O)c1c(C)c2cnc(Nc3ccc(N4CCN(C5CCN(C(=O)[C@H]6CC[C@H](Nc7cc(NC(C)C)ccc7C(=O)Nc7ccc(N(C)C)nn7)CC6)C5)CC4)cn3)nc2n(C2CCCC2)c1=O (stereo partly drawn) [CPD-527, 2-((trans-4-(3-(4-(6-((6-acetyl-8-cyclopentyl-5-methyl-7-oxo-7,8-dihydropyrido[2,3-d]pyrimidin-2-yl)amino)pyridin-3-yl)piperazin-1-yl)pyrrolidine-1-carbonyl)cyclohexyl)amino)-N-(6-(dimethylamino)pyridazin-3-yl)-4-(isopropylamino)benzamide] | – |
